Literature values in publication PMC12854702 (Synlett : accounts and rapid communications in synthetic …, 2025).

Key:
[1] = test system: serotonin 5-HT2A receptor
[2] = test system: dopamine D2 receptor
[3] = test system: human SLACK; conditions: Tl+-flux, HEK-293 cells stably expressing human SLACK
[4] = test system: histamine H1 receptor

**Q.** With CN1CCN(C2=Nc3ccccc3Oc3ccc(Cl)cc32)CC1 [loxapine] as the molecule, how does the “antagonism of serotonin 5-HT2A receptor” value [1] read?
**A.** potent antagonist

**Q.** And the “antagonism of dopamine D2 receptor” value [2]?
**A.** potent antagonist

**Q.** And the “SLACK activation Emax” value [3]?
**A.** 100%

**Q.** What about the “antagonism of histamine H1 receptor” value [4] of the same molecule?
**A.** potent antagonist
